ChEMBL document CHEMBL4715885, “Novel dual LSD1/HDAC6 inhibitors for the treatment of multiple myeloma” (Bioorg Med Chem Lett, 2021)
Values after ≈ are worked out from the molar mass of the structure shown. Values belong to the molecule of their own block, whether it stands above or below them. Active and inactive are the calls of the source. The calls are words filed in the database; no cut-off is given here.

Columns and labels:
[1] = Stability in human liver microsomes assessed as parent compound remaining measured after 30 mins; format: ADME, Microsome; settings: microsomes, 0.5 h
[2] = Stability in mouse liver microsomes assessed as parent compound remaining measured after 30 mins; format: ADME, Microsome; settings: microsomes, 0.5 h
[3] = Inhibition of HDAC phosphorylation (unknown origin); set-up: species or system Homo sapiens
[4] = molecular target: T1, Polyamine deacetylase HDAC10 (Homo sapiens, UniProt Q969S8); experiment: Inhibition of HDAC10 (unknown origin)
T1 sequence (Q969S8 whole entry): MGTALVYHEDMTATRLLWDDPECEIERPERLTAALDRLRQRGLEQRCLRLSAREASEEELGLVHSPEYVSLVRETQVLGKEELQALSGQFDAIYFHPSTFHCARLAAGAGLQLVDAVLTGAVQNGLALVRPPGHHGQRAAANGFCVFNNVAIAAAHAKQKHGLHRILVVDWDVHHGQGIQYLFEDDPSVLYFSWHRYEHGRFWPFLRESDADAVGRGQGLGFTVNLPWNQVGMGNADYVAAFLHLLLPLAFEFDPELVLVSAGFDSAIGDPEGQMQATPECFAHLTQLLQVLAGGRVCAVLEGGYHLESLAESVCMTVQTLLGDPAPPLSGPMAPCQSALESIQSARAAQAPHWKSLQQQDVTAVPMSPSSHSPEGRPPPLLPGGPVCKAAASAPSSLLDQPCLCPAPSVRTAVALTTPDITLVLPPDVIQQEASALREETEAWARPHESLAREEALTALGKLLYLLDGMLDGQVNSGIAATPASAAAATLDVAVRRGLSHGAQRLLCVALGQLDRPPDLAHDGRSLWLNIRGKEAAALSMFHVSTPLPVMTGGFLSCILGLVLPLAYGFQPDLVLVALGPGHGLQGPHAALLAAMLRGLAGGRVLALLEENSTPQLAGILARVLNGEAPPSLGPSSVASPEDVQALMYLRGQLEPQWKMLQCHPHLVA

[5] = Antiproliferative activity against human MM1.R cells assessed as reduction in cell viability after 144 hrs; format: functional, cell-based; settings: MM.1R
RPMI-8226 = experiment: Antiproliferative activity against human RPMI-8226 cells assessed as reduction in cell viability after 144 hrs; format: functional, cell-based; settings: RPMI-8226, 144 h
MM1.S [6] = experiment: Antitumour activity against human MM1.S cells xenografted in SCID mouse assessed as tumour growth inhibition at 25 mg/kg, po for 12 days relative to control; format: functional; settings: 288 h, time 12 day, read-out: TGI
[7] = Toxicity in SCID mouse xenografted with human MM1.S cells assessed as induction of body weight loss at 50 mg/kg, po dosed daily for 12 days; format: organism-based; settings: in vivo, 288 h, time 12 day
[8] = Drug concentration in tumour of mouse xenografted with human MM1.S cells at 50 mg/kg, po dosed daily for 12 days; format: ADME, organism-based, Neoplasm; settings: time 12 day, read-out: Drug uptake
[9] = Drug concentration in plasma of mouse xenografted with human MM1.S cells at 50 mg/kg, po dosed daily for 12 days; format: ADME, organism-based; settings: time 12 day
[10] = Half life in Balb/c mouse at 10 mg/kg, iv; format: ADME, organism-based; settings: in vivo
[11] = Half life in Balb/c mouse at 50 mg/kg, po; format: ADME, organism-based; settings: in vivo
[12] = Cmax in Balb/c mouse at 10 mg/kg, iv; format: ADME, organism-based; set-up: route intravenous, dose 10 mg/kg; settings: in vivo
[13] = Cmax in Balb/c mouse at 50 mg/kg, po; format: ADME, organism-based; set-up: route oral, dose 50 mg/kg; settings: in vivo
[14] = Initial plasma concentration in Balb/c mouse at 50 mg/kg, po; format: ADME, organism-based; settings: in vivo
[15] = AUC (0 to t) in Balb/c mouse at 10 mg/kg, iv; format: ADME, organism-based; set-up: dose 10 mg/kg; settings: in vivo
[16] = Clearance in Balb/c mouse at 50 mg/kg, po; format: ADME, organism-based; settings: in vivo
[17] = Volume of distribution in Balb/c mouse at 50 mg/kg, po; format: ADME, organism-based; settings: in vivo
[18] = Oral bioavailability in Balb/c mouse at 50 mg/kg; format: ADME, organism-based; settings: in vivo
[19] = molecular target: T2, Amine oxidase [flavin-containing] A (Homo sapiens, UniProt P21397); experiment: Inhibition of MAO-A (unknown origin)
T2 sequence (P21397 whole entry): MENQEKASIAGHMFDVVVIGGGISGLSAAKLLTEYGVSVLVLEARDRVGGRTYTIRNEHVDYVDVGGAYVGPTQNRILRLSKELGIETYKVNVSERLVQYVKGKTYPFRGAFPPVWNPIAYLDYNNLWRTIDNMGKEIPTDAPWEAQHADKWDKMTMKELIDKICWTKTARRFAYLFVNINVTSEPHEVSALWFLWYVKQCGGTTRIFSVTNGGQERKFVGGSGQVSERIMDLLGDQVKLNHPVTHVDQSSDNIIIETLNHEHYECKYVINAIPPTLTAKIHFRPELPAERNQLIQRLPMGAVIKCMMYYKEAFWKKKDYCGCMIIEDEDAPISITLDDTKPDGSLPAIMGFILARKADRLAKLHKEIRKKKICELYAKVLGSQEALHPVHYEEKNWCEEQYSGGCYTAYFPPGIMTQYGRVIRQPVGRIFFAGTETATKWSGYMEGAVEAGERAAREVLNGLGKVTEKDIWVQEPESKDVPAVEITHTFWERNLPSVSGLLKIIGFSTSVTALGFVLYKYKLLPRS

[20] = molecular target: T3, Amine oxidase [flavin-containing] B (Homo sapiens, UniProt P27338); experiment: Inhibition of MAO-B (unknown origin)
T3 sequence (P27338 whole entry): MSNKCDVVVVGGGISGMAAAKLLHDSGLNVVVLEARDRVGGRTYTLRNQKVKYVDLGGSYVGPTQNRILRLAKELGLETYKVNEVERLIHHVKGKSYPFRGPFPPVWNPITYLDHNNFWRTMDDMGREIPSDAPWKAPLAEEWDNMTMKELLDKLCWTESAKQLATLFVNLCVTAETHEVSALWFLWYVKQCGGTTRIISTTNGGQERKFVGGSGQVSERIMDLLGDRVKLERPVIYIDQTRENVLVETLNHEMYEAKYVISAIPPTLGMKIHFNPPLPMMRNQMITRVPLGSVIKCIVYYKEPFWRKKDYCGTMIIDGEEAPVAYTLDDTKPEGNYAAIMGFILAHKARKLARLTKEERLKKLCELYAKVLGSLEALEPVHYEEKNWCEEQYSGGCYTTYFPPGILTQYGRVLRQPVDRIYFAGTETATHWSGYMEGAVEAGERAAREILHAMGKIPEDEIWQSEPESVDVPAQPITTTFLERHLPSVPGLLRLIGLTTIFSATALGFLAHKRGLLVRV

[21] = molecular target: Voltage-gated inwardly rectifying potassium channel KCNH2 (Homo sapiens, UniProt Q12809); experiment: Inhibition of human ERG
[22] = Solubility of compound; format: physicochemical
[23] = Permeability from apical to basolateral side in human Caco2 cells; format: ADME, cell-based; settings: Caco-2, read-out: permeability
[24] = Permeability from basolateral to apical side in human Caco2 cells; format: ADME, cell-based; settings: Caco-2, read-out: permeability
[25] = Protein binding in plasma (unknown origin) assessed as unbound fraction; format: ADME, cell-free
CYP3A4 = CYP3A4 (Homo sapiens, UniProt P08684); experiment: Inhibition of CYP3A4 (unknown origin) at 10 uM relative to control; format: ADME
CYP2D6 = CYP2D6 (Homo sapiens, UniProt P10635); experiment: Inhibition of CYP2D6 (unknown origin) at 10 uM relative to control; format: ADME
[26] = molecular target: T4, Protein deacetylase HDAC6 (Homo sapiens, UniProt Q9UBN7); experiment: Inhibition of human HDAC6 (unknown origin) using RHKKAc as substrate by fluorescence method
T4 sequence (Q9UBN7 whole entry): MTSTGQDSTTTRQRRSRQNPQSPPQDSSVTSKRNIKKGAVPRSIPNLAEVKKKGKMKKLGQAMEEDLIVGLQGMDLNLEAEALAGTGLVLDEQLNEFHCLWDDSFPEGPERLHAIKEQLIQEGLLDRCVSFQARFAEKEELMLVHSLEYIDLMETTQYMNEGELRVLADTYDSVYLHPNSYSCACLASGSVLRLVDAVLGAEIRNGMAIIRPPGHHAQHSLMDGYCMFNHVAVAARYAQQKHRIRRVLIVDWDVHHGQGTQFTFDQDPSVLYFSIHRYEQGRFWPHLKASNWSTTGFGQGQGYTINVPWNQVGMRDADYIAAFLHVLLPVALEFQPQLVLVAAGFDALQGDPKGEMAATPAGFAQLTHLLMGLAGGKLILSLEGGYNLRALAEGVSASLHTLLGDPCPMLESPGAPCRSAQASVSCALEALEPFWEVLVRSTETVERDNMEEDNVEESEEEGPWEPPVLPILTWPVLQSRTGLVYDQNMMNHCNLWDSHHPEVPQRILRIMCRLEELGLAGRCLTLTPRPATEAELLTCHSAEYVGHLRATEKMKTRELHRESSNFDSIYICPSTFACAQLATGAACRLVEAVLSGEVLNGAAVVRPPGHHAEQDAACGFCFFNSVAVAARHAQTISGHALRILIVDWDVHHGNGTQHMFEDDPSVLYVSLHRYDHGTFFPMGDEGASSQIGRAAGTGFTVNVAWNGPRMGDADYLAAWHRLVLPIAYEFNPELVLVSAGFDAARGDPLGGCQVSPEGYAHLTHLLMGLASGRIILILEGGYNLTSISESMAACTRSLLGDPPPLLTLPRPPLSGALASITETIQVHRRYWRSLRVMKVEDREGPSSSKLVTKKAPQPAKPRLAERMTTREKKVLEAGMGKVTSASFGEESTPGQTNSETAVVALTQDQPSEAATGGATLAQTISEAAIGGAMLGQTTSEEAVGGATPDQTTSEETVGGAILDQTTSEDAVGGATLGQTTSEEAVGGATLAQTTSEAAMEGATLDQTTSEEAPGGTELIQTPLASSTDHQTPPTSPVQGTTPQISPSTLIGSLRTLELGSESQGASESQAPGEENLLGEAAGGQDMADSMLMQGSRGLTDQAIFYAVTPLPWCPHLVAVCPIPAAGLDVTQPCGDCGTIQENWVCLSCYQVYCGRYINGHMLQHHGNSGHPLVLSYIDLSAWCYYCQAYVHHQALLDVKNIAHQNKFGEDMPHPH

[27] = molecular target: Histone deacetylase 1 (Homo sapiens) (UniProt Q13547); experiment: Inhibition of human HDAC1 at 1uM using RHKKAc as substrate by fluorescence method relative to control
MM1.S [28] = experiment: Antiproliferative activity against human MM1.S cells assessed as reduction in cell viability after 144 hrs; format: functional, cell-based
MM1.S [29] = experiment: Antiproliferative activity against human MM1.S cells assessed as reduction in cell viability at 10 uM after 144 hrs relative to control; format: functional

Chain of CYP3A4 (P08684 whole entry): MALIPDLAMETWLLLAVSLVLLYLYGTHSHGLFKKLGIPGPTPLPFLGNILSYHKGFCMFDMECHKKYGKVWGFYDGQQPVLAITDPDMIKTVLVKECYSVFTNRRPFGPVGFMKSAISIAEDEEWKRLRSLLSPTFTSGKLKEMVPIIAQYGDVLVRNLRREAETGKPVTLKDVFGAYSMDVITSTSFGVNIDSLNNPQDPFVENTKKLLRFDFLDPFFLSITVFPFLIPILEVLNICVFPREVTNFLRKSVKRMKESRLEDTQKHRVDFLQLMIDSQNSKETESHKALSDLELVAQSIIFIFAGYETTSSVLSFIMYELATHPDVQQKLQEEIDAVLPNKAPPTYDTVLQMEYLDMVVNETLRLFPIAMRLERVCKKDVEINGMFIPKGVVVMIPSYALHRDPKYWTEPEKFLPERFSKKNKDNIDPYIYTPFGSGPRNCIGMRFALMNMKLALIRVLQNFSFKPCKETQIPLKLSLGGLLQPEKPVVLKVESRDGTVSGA
Chain of Voltage-gated inwardly rectifying potassium channel KCNH2 (Q12809 whole entry): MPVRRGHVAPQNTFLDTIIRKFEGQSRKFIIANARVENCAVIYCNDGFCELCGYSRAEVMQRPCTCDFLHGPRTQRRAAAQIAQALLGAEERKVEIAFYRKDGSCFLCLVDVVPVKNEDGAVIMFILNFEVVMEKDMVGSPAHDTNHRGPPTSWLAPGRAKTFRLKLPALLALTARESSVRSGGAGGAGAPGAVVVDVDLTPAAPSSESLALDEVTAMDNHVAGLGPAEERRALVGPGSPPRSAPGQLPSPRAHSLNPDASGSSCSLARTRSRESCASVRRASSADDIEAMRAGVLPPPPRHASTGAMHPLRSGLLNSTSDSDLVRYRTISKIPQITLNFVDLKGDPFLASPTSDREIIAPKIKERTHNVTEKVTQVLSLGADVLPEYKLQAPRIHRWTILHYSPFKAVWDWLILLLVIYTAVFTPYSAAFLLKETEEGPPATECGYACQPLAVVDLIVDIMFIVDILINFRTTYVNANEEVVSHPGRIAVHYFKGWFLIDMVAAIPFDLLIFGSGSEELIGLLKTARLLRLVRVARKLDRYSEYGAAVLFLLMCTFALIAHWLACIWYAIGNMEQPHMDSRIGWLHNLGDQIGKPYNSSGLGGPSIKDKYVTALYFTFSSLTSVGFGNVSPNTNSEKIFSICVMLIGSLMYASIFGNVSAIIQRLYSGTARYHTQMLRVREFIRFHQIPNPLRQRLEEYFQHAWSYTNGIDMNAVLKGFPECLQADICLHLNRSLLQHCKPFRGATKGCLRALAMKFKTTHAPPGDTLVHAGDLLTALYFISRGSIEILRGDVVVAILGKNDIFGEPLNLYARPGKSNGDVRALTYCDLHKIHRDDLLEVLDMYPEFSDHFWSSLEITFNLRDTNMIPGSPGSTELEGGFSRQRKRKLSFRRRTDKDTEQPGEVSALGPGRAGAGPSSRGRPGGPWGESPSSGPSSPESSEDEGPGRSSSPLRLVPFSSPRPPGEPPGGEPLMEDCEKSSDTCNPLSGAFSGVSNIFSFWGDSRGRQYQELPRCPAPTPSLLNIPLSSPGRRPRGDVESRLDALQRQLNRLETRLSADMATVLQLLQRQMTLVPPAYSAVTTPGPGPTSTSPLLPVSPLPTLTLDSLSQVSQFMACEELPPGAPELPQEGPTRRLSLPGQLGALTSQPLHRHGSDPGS
Chain of CYP2D6 (P10635 whole entry): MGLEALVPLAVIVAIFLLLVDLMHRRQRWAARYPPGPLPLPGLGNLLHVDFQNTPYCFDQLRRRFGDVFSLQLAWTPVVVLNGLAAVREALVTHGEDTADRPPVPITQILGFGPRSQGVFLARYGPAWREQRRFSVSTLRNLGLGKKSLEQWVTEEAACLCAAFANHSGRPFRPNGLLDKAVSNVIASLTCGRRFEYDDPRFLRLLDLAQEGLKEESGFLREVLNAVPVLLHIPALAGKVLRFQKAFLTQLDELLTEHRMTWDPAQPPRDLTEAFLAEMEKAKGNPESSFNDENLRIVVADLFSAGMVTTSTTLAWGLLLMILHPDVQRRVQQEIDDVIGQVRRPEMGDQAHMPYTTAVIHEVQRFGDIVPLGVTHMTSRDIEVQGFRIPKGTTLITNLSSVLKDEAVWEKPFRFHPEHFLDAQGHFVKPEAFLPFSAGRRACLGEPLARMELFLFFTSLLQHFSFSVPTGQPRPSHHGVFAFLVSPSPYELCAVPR
Chain of Histone deacetylase 1 (Homo sapiens) (Q13547 whole entry): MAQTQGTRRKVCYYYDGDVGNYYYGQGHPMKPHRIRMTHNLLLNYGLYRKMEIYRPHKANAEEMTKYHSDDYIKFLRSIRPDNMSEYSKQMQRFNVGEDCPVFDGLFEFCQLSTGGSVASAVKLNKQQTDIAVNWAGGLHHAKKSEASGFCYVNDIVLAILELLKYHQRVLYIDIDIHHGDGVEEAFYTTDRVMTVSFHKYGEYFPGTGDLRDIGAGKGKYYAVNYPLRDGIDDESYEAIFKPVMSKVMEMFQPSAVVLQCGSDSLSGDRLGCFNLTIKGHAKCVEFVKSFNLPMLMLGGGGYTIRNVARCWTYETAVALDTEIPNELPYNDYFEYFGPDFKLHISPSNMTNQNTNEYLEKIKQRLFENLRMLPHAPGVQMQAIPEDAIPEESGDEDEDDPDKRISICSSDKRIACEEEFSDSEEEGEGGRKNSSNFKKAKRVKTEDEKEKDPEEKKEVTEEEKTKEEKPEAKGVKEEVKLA

- Stabilty [1]: 40%
- Stabilty [2]: 56%
- IC50 [3]: 1.78 µM
- IC50 [4]: > 10 µM
- EC50 (RPMI-8226): 0.28 µM
- concentration at 288 h [8]: 216 ng/mL
- concentration at 288 h [9]: 52 ng/mL
- half-life [10]: 3.3 h
- half-life [11]: 2.5 h
- Cmax [12]: 821 ng/mL
- Cmax [13]: 904 ng/mL
- C0 [14]: 1406 ng/mL
- AUC(0-t) [15]: 1520 ng·h/mL
- CL/F [16]: 233 mL/min/kg
- Vd [17]: 66 L/kg
- bioavailability [18]: 44%
- IC50 [19]: 8.6 µM
- IC50 [20]: 6.6 µM
- solubility [22]: 110 µM (≈ 44.8 µg/mL)
- Papp A→B [23]: 2.67 ×10⁻⁶ cm/s
- Papp B→A [24]: 9.6 ×10⁻⁶ cm/s
- fraction unbound [25]: 0.45
- inhibition at 10 µM (CYP3A4): 11%
- inhibition at 10 µM (CYP2D6): 54%
Compound: O=C(NO)c1ccc(CCCN2CCC(CN[C@H]3C[C@@H]3c3ccccc3)CC2)cc1 (racemic)
- EC50 [5]: 0.006 µM
- inhibition in vivo at 25 mg/kg (MM1.S [6]): 67%
- Activity [7]: Non-Toxic
- IC50 [21]: 5.6 µM

Compound: Cl.Cl.NC1CCC(N[C@@H]2C[C@H]2c2ccccc2)CC1 (some centres not stated)
- IC50 [26]: Not Active
- inhibition [27]: inactive
- EC50 (MM1.S [28]): > 10 µM
- Activity (MM1.S [29]): 30%
